Tests used:
[1] = tested on: muskmelon powdery mildew; test: Resistance to powdery mildew of muskmelon plants sprayed with allantoin aqueous solution and inoculated with spore suspension (greenhouse); assay type: in vivo, Podosphaera xanthii; conditions: for plant morbidity: inoculated 24 h after first spraying
Description: Preparation and inoculation of pathogen spore suspension of muskmelon powdery mildew:
Muskmelon leaves with severe powdery mildew were randomly selected from the field, and conidia were transferred to a beaker containing sterile water by a brush and uniformly stirred to obtain the spore suspension of powdery mildew. Spore concentration was measured under an optical microscope by using a blood counting chamber, and the concentration of the spore suspension was adjusted to be 1×10^6spores/mL for later use, which was used for inoculation tests. It was identified that this bacterial suspension was the bacterial suspension of muskmelon powdery mildew.
Muskmelon seedlings were planted in a greenhouse in June. When the muskmelon seedlings grown to the spreading stage, they were divided into a blank group, a pathogen inoculation group, a negative control group and an experimental group. […] The negative control group was sprayed with the sterile water at 5:00 pm to 6:00 pm, spraying was carried out once every three days, and the spraying amount of each time was the same as that of the aqueous solution containing allantoin in the experimental group. 24 hours after the first spraying of the allantoin water solution in the experimental group, the negative control group, the pathogen inoculation group and the experimental group were inoculated with the spore suspension of powdery mildew obtained above after the solution on the leaves was evaporated. After the pathogen inoculation group was infected with powdery mildew, the resistance to powdery mildew of the experimental group and the negative control group was observed (as shown in FIG. 1A-B), and the disease index, morbidity and control efficiency of the experimental group were calculated.
Leaf morphology was graded according to the response of the muskmelon leaves infected with powdery mildew. Grade 0: no infection; grade 1: no obvious infection; grade 2: mild infection; grade 3: moderate infection; grade 4: severe infection; and grade 5: whole-leaf infection. Disease index=sum of disease grade numbers of all leaves of an individual plant/number of leaves of the individual plant×the highest disease grade of the leaves of the individual plant Morbidity=number of infected individual plants/total number of investigated individual plants×100% Control efficiency=number of uninfected individual plants/total number of investigated individual plants×100%
Muskmelon seedlings were planted in a greenhouse in June. When the muskmelon seedlings grown to the three-leaves and one-bud stage, they were divided into a blank group, a pathogen inoculation group, a negative control group and an experimental group. The muskmelon leaves in the experimental group were sprayed with an aqueous solution containing allantoin with the concentration of 1050 mg/L at 5:00 pm to 6:00 pm, spraying was carried out once every three days, and a medicament was uniformly covered on the leaves for each time of spraying. The negative control group was sprayed with the sterile water at 5:00 pm to 6:00 pm, spraying was carried out once every three days, and the spraying amount of each time was the same as that of the aqueous solution containing allantoin in the experimental group. 24 hours after the first spraying of the allantoin water solution in the experimental group, the negative control group, the pathogen inoculation group and the experimental group were inoculated with the spore suspension of powdery mildew obtained above after the solution on the leaves was evaporated. After the pathogen inoculation group was infected with powdery mildew, the resistance to powdery mildew of the experimental group was observed (as shown in FIG. 2A-B), and the disease index, morbidity and control efficiency of the experimental group were calculated.

[2] = tested on: pathogen of muskmelon gummy stem blight; test: Plate experiment of inhibitory effect on pathogen of muskmelon gummy stem blight (PDA medium); assay type: cell-based; conditions: allantoin aqueous solution 700 mg/L and 1050 mg/L smeared on PDA plates, 7 days, 28° C.
Description: Based on the purpose of study, the inventor designed a plate experiment. Considering that powdery mildew is a living parasitic fungi and can only grow and reproduce on living plants, a PDA medium cannot be used for culturing, so that pathogen of muskmelon gummy stem blight is used for experiment. The specific experiment method is as follows: a PDA medium was prepared and poured into plates; equal amounts of an allantoin aqueous solution with the concentration of 700 mg/L, an allantoin aqueous solution with the concentration of 1050 mg/L and sterile water were respectively smeared on three plates, and then a bacterial cake of the pathogen of muskmelon gummy stem blight was inoculated in the center of each plate; the plates were cultured for 7 days under 28° C., and the growth of the pathogen of muskmelon gummy stem blight in the three plates was observed.

[3] = Example 3: 700 mg/L allantoin aqueous solution sprayed on leaves once every three days, spreading stage
[4] = Example 4: 1050 mg/L allantoin aqueous solution sprayed on leaves once every three days, three-leaves and one-bud stage

Question: Which results are given for `NC(=O)NC1NC(=O)NC1=O` (stereo not shown) [allantoin]?
Answer: control efficiency [1, 3]: 100%; disease index [1, 3]: 0; plant morbidity [1, 3]: 0%; powdery mildew spots on the leaves ([1]; Example 3: 700 mg/L allantoin aqueous solution, spreading stage (FIG. 1A)): no powdery mildew spot is generated on the leaves; plant morbidity ([1]; Example 4: 1050 mg/L allantoin aqueous solution sprayed on leaves once every three days, three-leaves and one-bud (seedling) stage): 0%; control efficiency [1, 4]: 100%; disease index [1, 4]: 0; powdery mildew spots on the leaves ([1]; Example 4: 1050 mg/L allantoin aqueous solution, three-leaves and one-bud stage (FIG. 2)): no powdery mildew spot is generated on the leaves; control efficiency (summary statement) ([1]; aqueous solution containing allantoin sprayed on leaves in the spreading stage or the three-leaves and one-bud stage): ≤ 100%; growth of the pathogen of muskmelon gummy stem blight on plate [2]: does not inhibit the growth
